The subject of experiment [1] is murine melanoma cell line, B16F10. The experiment can be described thus: Cytotoxicity assay (cell viability, CellTiter 96), negative control. The experiment is classed as cell-based. Details: unit not given beside the values. The conditions noted are these: Murine melanoma B16-F10; 10 minutes at 37° C., washed, plated 3 and 6 days.
The next experiment deals with A375.S2 cells. The experiment can be described thus: Binding and internalization of liposomes at 37° C., confocal microscopy. The experiment is classed as cell-based, human. The conditions noted are these: 37° C. for 10 min, washed, incubated 1 hour. The procedure: (§1) Several human tumor cells bearing human αVβ3/5 integrins were used: (1) A375.S2, human melanoma cell line; (2) MDA-MB-231, Human Breast Carcinoma Cell line; (3) A2780, Human Ovarian Carcinoma Cell line; (4) HT29, Human Colon Carcinoma Cell line; (5) A549, Human Lung Carcinoma Cell line.
Liposomes were prepared as described in Example 1, except in two aspects. First, Dextran Alexa Fluor 488 (Cat No. D-22910, from Molecular Probes) was included in the hydration buffer during the passive encapsulation step of liposome formation, and after the sizing step dialysis was used to remove any unencapsulated Alexa. Second, instead of inserting Fab-PEG-lipid into the liposome bilayer, maleimide-PEG-lipid (MalPEG-DSPE) was inserted into the liposome bilayer at approximately 800 MalPeg-DSPE per liposome at 60° C. for 1 Hr. The insertion step was followed by the conjugation of the Fab to the reactive end of the lipopolymer. The appropriate amount of Fab was added to the MalPEG-DSPE inserted liposomes to achieve a 90:1 anti-alphaV-Fab targeting ligands per liposome ratio. These liposomes were used in the binding and internalization studies described below. […]
A375.S2 cells were harvested by scraping and then resuspended to obtain individualized cells and rejuvenated for 1 hour, at 37° C. About 1 million cells of each tumor type were counted and distributed into individual centrifugation tubes. […]

In experiment [2] the test system is A2780, Human Ovarian Carcinoma Cell line. Briefly: Cytotoxicity assay (cell viability, CellTiter 96). The experiment is classed as cell-based. Details: unit not given beside the values. The conditions noted are these: ovarian cancer A2780; 10 minutes at 37° C., washed, plated 3 and 6 days. The procedure: as §1
(§2) Cell viability was assayed using the CellTiter 96 AQueous One Solution Cell Proliferation Assay from Promega (Cat No. G3581). A Spectra Max 250 plate reader was used, with a reading wavelength of 490 nm. Confocal Microscopy was done using a Nikon, Eelipse, E600. An Eppendorf centrifuge 5804 was used.
(§3) Liposomes bearing 15:1, 40:1, 90:1 and 180:1 alpha-integrin Fab targeting ligands per liposome and containing doxorubicin were prepared as described in Example 1 and 2. These targeted-liposomes were used in the cytotoxicity assay using the various cells lines, as described below.
(§4) Cells were harvested by scraping and then resuspended at 37° C. for 1 hour to obtain individualized cells. About 1 million cells of each tumor type were counted and placed in individual centrifugation tubes. The tubes were centrifuged to obtain a cell pellet. The cells were then incubated with the targeted liposome compositions containing doxorubicin for 10 minutes at 37° C., with mild shaking, 140 rpm. Cells were treated with a quantity of liposomes sufficient to give a doxorubicin concentration of 40 μg/mL. […]

The test system of experiment [3] is A375.S2, human melanoma cell line. The experiment can be described thus: Cytotoxicity assay (cell viability, CellTiter 96). The experiment is classed as cell-based. On the set-up: unit not given beside the values. As to conditions: 10 minutes at 37° C., washed, plated 3 and 6 days. As to the method:
as §1, §2, §3, §4

As for `COc1cccc2c1C(=O)c1c(O)c3c(c(O)c1C2=O)C[C@@](O)(C(=O)CO)C[C@@H]3O[C@H]1C[C@H](N)[C@H](O)[C@H](C)O1` [free dox, doxorubicin], the IC50 of doxorubicin in experiment [1], in experiment [2] and in experiment [3] was more than 200 in each case. Moreover, in the experiment on A375.S2 cells, the “binding and internalization into A375.S2 cells” value was “drug internalization is evident”.

Values taken from US8138315B2, “Anti-alpha V immunoliposome compositions, methods and uses” (Centocor Ortho Biotech Inc., priority 2007, dated 2012).
